From PubChem BioAssay AID330 (DTP/NCI, 2004)
Values joined by “and” are separate entries in the source; they are usually repeats but may differ in a detail not shown here. Identical values can stand only once. Inconclusive results and toxic doses are left out.

System: P388 leukemia ip, CD2F1 mice, survival T/C
Assay: NCI In Vivo Anticancer Drug Screen. Data for tumor model P388 Leukemia (intraperitoneal) in CD2F1 (CDF1) mice
Settings: endpoint: median survival time, higher = longer survival
How it was run: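 Mice carrying the transplanted tumor received test compound or vehicle. Survival was recorded in each group, and the value is the treated-group measurement divided by that of the vehicle-treated control group.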

[1] = dose: 60.0 mg/kg/injection, schedule: Q01DX005 (ip), vehicle: saline with Tween-80
[2] = dose: 50.0 mg/kg/injection, schedule: Q01DX009 (ip), vehicle: saline with Tween-80
[3] = dose: 100.0 mg/kg/injection, schedule: Q01DX009 (ip), vehicle: saline with Tween-80
[4] = dose: 200.0 mg/kg/injection, schedule: Q01DX009 (ip), vehicle: saline with Tween-80
[5] = dose: 50.0 mg/kg/injection, schedule: Q01DX005 (ip), vehicle: Klucel (hydroxypropylcellulose) (HPC)
[6] = dose: 100.0 mg/kg/injection, schedule: Q01DX005 (ip), vehicle: Klucel (hydroxypropylcellulose) (HPC)
[7] = dose: 200.0 mg/kg/injection, schedule: Q01DX005 (ip), vehicle: Klucel (hydroxypropylcellulose) (HPC)
[8] = dose: 50.0 mg/kg/injection, schedule: Q01DX009 (ip), vehicle: Klucel (hydroxypropylcellulose) (HPC)
[9] = dose: 100.0 mg/kg/injection, schedule: Q01DX009 (ip), vehicle: Klucel (hydroxypropylcellulose) (HPC)
[10] = dose: 200.0 mg/kg/injection, schedule: Q01DX009 (ip), vehicle: Klucel (hydroxypropylcellulose) (HPC)
[11] = dose: 25.0 mg/kg/injection, schedule: Q04DX003 (ip), vehicle: saline
[12] = dose: 50.0 mg/kg/injection, schedule: Q04DX003 (ip), vehicle: saline
[13] = dose: 100.0 mg/kg/injection, schedule: Q04DX003 (ip), vehicle: saline

Compound: C1CCC2(CC1)NN=C1CCCCC12 (stereo unspecified)
- T/C (dose: 12.5 mg/kg/injection, schedule: Q01DX009 (ip), vehicle: other): 101 % of control
- T/C (dose: 25.0 mg/kg/injection, schedule: Q01DX009 (ip), vehicle: other): 110 % of control
- T/C (dose: 50.0 mg/kg/injection, schedule: Q01DX009 (ip), vehicle: other): 104 % of control
- T/C (dose: 100.0 mg/kg/injection, schedule: Q01DX009 (ip), vehicle: other): 106 % of control
- T/C (dose: 200.0 mg/kg/injection, schedule: Q01DX009 (ip), vehicle: other): 116 % of control

Compound: ClCCCN1CCN(CCCCl)CC1
- T/C (dose: 12.5 mg/kg/injection, schedule: Q01DX009 (ip), vehicle: distilled water + alcohol): 113 % of control
- T/C (dose: 25.0 mg/kg/injection, schedule: Q01DX009 (ip), vehicle: distilled water + alcohol): 121 % of control
- T/C (dose: 100.0 mg/kg/injection, schedule: Q01DX009 (ip), vehicle: distilled water + alcohol): 157 % of control and 190 % of control

Compound: CSc1nc(NC2OCC(O)C(O)C2O)c(C=O)c(=O)[nH]1 (stereo unspecified)
- T/C (dose: 15.0 mg/kg/injection, schedule: Q01DX005 (ip), vehicle: saline with Tween-80): 97 % of control
- T/C (dose: 30.0 mg/kg/injection, schedule: Q01DX005 (ip), vehicle: saline with Tween-80): 109 % of control
- T/C [1]: 95 % of control

Compound: O=C(O)c1ccc(O)c(C(=O)O)c1
- T/C [2]: 94 % of control
- T/C [3]: 94 % of control

Compound: O=C1c2ccccc2CC2CCCCC12 (stereo unspecified)
- T/C [2]: 103 % of control
- T/C [3]: 102 % of control
- T/C [4]: 108 % of control

Compound: O=C(/C=C/c1ccccc1)[c-]1[c-][c-][c-][c-]1.[Fe].[c-]1[c-][c-][cH-][c-]1
- T/C [5]: 96 % of control
- T/C [6]: 109 % of control
- T/C [7]: 100 % of control

Compound: Cc1cccc2c(=O)n3c(cc12)-c1[nH]c2ccccc2c1CC3
- T/C (dose: 60.0 mg/kg/injection, schedule: Q01DX005 (ip), vehicle: Klucel (hydroxypropylcellulose) (HPC)): 103 % of control
- T/C (dose: 120.0 mg/kg/injection, schedule: Q01DX005 (ip), vehicle: Klucel (hydroxypropylcellulose) (HPC)): 97 % of control
- T/C (dose: 240.0 mg/kg/injection, schedule: Q01DX005 (ip), vehicle: Klucel (hydroxypropylcellulose) (HPC)): 96 % of control

Compound: O=C1Oc2ccccc2CC1C(=O)c1ccc(Cl)cc1 (stereo unspecified)
- T/C (dose: 50.0 mg/kg/injection, schedule: Q01DX005 (ip), vehicle: saline with Tween-80): 106 % of control
- T/C (dose: 100.0 mg/kg/injection, schedule: Q01DX005 (ip), vehicle: saline with Tween-80): 103 % of control
- T/C (dose: 200.0 mg/kg/injection, schedule: Q01DX005 (ip), vehicle: saline with Tween-80): 100 % of control

Compound: CC(=O)OC(C(=O)CCl)C(OC(C)=O)C(OC(C)=O)C(=O)CCl (stereo unspecified)
- T/C (dose: 12.5 mg/kg/injection, schedule: Q01DX009 (ip), vehicle: distilled water + Tween-80 + alcohol): 93 % of control
- T/C (dose: 25.0 mg/kg/injection, schedule: Q01DX009 (ip), vehicle: distilled water + Tween-80 + alcohol): 101 % of control
- T/C (dose: 50.0 mg/kg/injection, schedule: Q01DX009 (ip), vehicle: distilled water + Tween-80 + alcohol): 100 % of control

Compound: O=C(NCc1ccccc1)N1CCN(c2ccccc2)C1=O
- T/C (dose: 25.0 mg/kg/injection, schedule: Q01DX009 (ip), vehicle: saline with Tween-80): 103 % of control and 88 % of control
- T/C [2]: 98 % of control and 89 % of control and 96 % of control
- T/C [3]: 97 % of control
- T/C [4]: 98 % of control and 89 % of control and 93 % of control

Compound: CCC1=C(C)CC(CC(=O)OC)C1=O (stereo unspecified)
- T/C (dose: 50.0 mg/kg/injection, schedule: Q01DX005 (ip), vehicle: saline): 95 % of control
- T/C (dose: 100.0 mg/kg/injection, schedule: Q01DX005 (ip), vehicle: saline): 97 % of control
- T/C (dose: 200.0 mg/kg/injection, schedule: Q01DX005 (ip), vehicle: saline): 98 % of control

Compound: CN1CCN=C1c1ccc(NC(=O)c2ccc(C(=O)Nc3ccc(C4=NCCN4C)cc3)c(N)c2)cc1
- T/C (dose: 1.32 mg/kg/injection, schedule: Q01DX009 (ip), vehicle: saline): 120 % of control
- T/C (dose: 3.0 mg/kg/injection, schedule: Q01DX009 (ip), vehicle: saline): 150 % of control
- T/C (dose: 5.0 mg/kg/injection, schedule: Q04DX003 (ip), vehicle: saline with Tween-80): 95 % of control
- T/C (dose: 10.0 mg/kg/injection, schedule: Q04DX003 (ip), vehicle: saline with Tween-80): 95 % of control
- T/C (dose: 20.0 mg/kg/injection, schedule: Q04DX003 (ip), vehicle: saline with Tween-80): 90 % of control

Compound: S=C(N/N=C/c1ccccn1)N/N=C/c1ccccn1
- T/C (dose: 6.25 mg/kg/injection, schedule: Q01DX009 (ip), vehicle: saline): 117 % of control
- T/C (dose: 12.5 mg/kg/injection, schedule: Q01DX009 (ip), vehicle: saline): 103 % of control and 105 % of control
- T/C (dose: 25.0 mg/kg/injection, schedule: Q01DX009 (ip), vehicle: distilled water + Tween-80): 97 % of control
- T/C (dose: 25.0 mg/kg/injection, schedule: Q01DX009 (ip), vehicle: saline): 109 % of control and 120 % of control

Compound: COc1ccc(C2NC(=S)NC(=O)C2C#N)cc1OC (stereo unspecified)
- T/C [8]: 98 % of control
- T/C [9]: 98 % of control
- T/C [10]: 95 % of control

Compound: COC(=O)c1cc(=O)n(-c2ccc(OC)cc2)c(SC)n1
- T/C (dose: 100.0 mg/kg/injection, schedule: Q04DX003 (ip), vehicle: saline with Tween-80): 100 % of control
- T/C (dose: 200.0 mg/kg/injection, schedule: Q04DX003 (ip), vehicle: saline with Tween-80): 91 % of control

Compound: O=C(CCS(=O)(=O)CCC(=O)c1ccc2ccccc2c1)c1ccc2ccccc2c1
- T/C [11]: 102 % of control
- T/C [12]: 99 % of control
- T/C [13]: 92 % of control and 98 % of control
- T/C (dose: 400.0 mg/kg/injection, schedule: Q04DX003 (ip), vehicle: saline): 88 % of control

Compound: C=Cc1cnc([N+](=O)[O-])n1C
- T/C [8]: 110 % of control and 123 % of control
- T/C [9]: 111 % of control
- T/C [10]: 153 % of control

Compound: CC1C(=O)OC(C)(C)C1(C)C (stereo unspecified)
- T/C [2]: 101 % of control

Compound: CN(C)CCCOC1=Nc2ccccc2O/C1=C/c1cccs1
- T/C [11]: 94 % of control
- T/C [12]: 94 % of control
- T/C [13]: 100 % of control and 94 % of control

Compound: Cc1ccc(N2C(=O)c3ccccc3NC2(C)CCl)cc1 (stereo unspecified)
- T/C [2]: 103 % of control
- T/C [3]: 103 % of control
- T/C [4]: 112 % of control

Compound: S=C1Cc2[nH]c(=S)sc(=S)c2C(=S)N1
- T/C [3]: 87 % of control

Compound: O=C(Nc1ccc(CCO)cc1)Nc1cc(C(F)(F)F)ccc1Cl
- T/C [1]: 89 % of control
- T/C (dose: 120.0 mg/kg/injection, schedule: Q01DX005 (ip), vehicle: saline with Tween-80): 90 % of control

Compound: C=C1C(=O)O[C@@H]2C[C@@]3(C)CCC[C@H](C)C3=C[C@H]12 (tested in a mixture with another compound)
- T/C (dose: 7.5 mg/kg/injection, schedule: Q01DX005 (ip), vehicle: saline + alcohol): 93 % of control
- T/C (dose: 15.0 mg/kg/injection, schedule: Q01DX005 (ip), vehicle: saline + alcohol): 94 % of control
- T/C (dose: 30.0 mg/kg/injection, schedule: Q01DX005 (ip), vehicle: saline + alcohol): 103 % of control
- T/C (dose: 60.0 mg/kg/injection, schedule: Q01DX005 (ip), vehicle: saline + alcohol): 100 % of control
- T/C (dose: 120.0 mg/kg/injection, schedule: Q01DX005 (ip), vehicle: saline + alcohol): 104 % of control

Compound: COc1cc(C)c(C2NC(=O)c3ccccc3N2)cc1C (stereo unspecified)
- T/C [5]: 104 % of control and 111 % of control
- T/C [6]: 103 % of control and 112 % of control
- T/C (dose: 172.0 mg/kg/injection, schedule: Q01DX005 (ip), vehicle: Klucel (hydroxypropylcellulose) (HPC)): 109 % of control
- T/C [7]: 112 % of control and 121 % of control
- T/C (dose: 288.0 mg/kg/injection, schedule: Q01DX005 (ip), vehicle: Klucel (hydroxypropylcellulose) (HPC)): 118 % of control
- T/C (dose: 800.0 mg/kg/injection, schedule: Q01DX005 (ip), vehicle: Klucel (hydroxypropylcellulose) (HPC)): 117 % of control
- T/C (dose: 1333.0 mg/kg/injection, schedule: Q01DX005 (ip), vehicle: Klucel (hydroxypropylcellulose) (HPC)): 160 % of control

Compound: CC[C@@H]1C[C@H]2CC3c4[nH]c5ccc(O)cc5c4CCN(C2)C31
- T/C (dose: 100.0 mg/kg/injection, schedule: Q01DX001 (ip), vehicle: saline with Tween-80): 99 % of control

Compound: CC[C@@]1(O)C(=O)OCc2c1cc1n(c2=O)Cc2cc3c(N)cccc3nc2-1
- T/C (dose: 0.12 mg/kg/injection, schedule: Q01DX005 (ip), vehicle: saline with Tween-80): 153 % of control
- T/C (dose: 0.25 mg/kg/injection, schedule: Q01DX005 (ip), vehicle: saline with Tween-80): 153 % of control
- T/C (dose: 0.5 mg/kg/injection, schedule: Q01DX005 (ip), vehicle: saline with Tween-80): 180 % of control and 204 % of control
- T/C (dose: 1.0 mg/kg/injection, schedule: Q01DX005 (ip), vehicle: saline with Tween-80): 180 % of control

Compound: N=C(N)c1ccc2oc(/C=C/c3ccc(-c4cc5cc(C(=N)N)ccc5o4)cc3)cc2c1
- T/C [5]: 98 % of control
- T/C [6]: 104 % of control
- T/C [7]: 104 % of control
